Data published in US4983620A, “Pharmacologically active alkylthiobenzimidazole derivatives and process for the preparation thereof” (Dompe Farmaceutici S.p.A., priority 1988, dated 1991).
Where a name gives a salt, the structure may show the parent alone.

Legend:
[1] = target: T1, H1 histaminergic receptors (Rattus norvegicus, UniProt P31390); assay: Affinity towards H1 histaminergic receptors ([3H]Mepyramine displacement, rat brain homogenates); conditions: 2 nM [3H]Mepyramine, 25° C., 15 minutes, pH 7.5, read-out: H1-receptor binding IC50
T1 construct: in homogenates of rat brain; from tissue; host or cells: rat whole brain homogenate
Experimental: The affinity of the examined compounds towards H1 histaminergic receptors as evaluated by displacement curves which were obtained of different concentrations, against [^3 H]
The incubation was performed at 25° C. for 15 minutes, in a final volume of 1 ml of […] Na/K phosphate buffer, pH 7.5, in the presence of 2 nM [^3 H] Mepyramina and 1.5 mg of cerebral protein. Aspecific binding was defined as the residual radioactivity bound in the presence of […] Clemastine. The test compounds were dissolved in phosphate buffer or dimethylsulfoxide (DMSO), the final concentration of DMSO was 0.5%. Incubation was terminated by filtration through glass fiber GF/B filters pre-soaked with 0.1% polyethylenimine (PEI). The radioactivity trapped by filters was counted by liquid scintillation.

[2] = Acute toxicity (LD50) on mice; conditions: mouse, in vivo, ip
Experimental: The Letal Dose50 (LD50) was evaluated on mice using Swiss Nos (Nossan, Correzzana, Milano) mice weighing 18-20 g each. The animals, divided into groups of 10 animals each (5M+5F), were on an empty stomach for 18 hrs, with water ad libitum, and kept in cages with a grid floor. The compounds (I) were dissolved in water or suspended in 0.5% carboxymethylcellulose and intraperitioneally administered to the animals (10 ml/kg). The mortality occurred in the tested animals within the following 6 hours was noted down. At the expiry of the 6th hour, the animals were allowed to eat up to the end of the experimentation which lasted 14 days. During this period all the toxic symptoms and the mortality occurring were noted.
The animals which died during the test period and those which were sacrificed at the end of the same, underwent autopsy for a macroscopic examination of their main organs. The experimental data were statistically compared with the X^2 method and LD50 was extrapolated by the `probit` method.

[3] = tested on: mortality induced by compound 48/80; assay: Effect on the mortality induced by compound 48/80; assay type: in vivo, Sprague Dawley Nos male rats; conditions: Rattus norvegicus, ip, 4 h; i.p., 30 minutes before 2 mg/kg i.v. compound 48/80; rats; read-out: Compound 48/80 mortality ID50
Experimental: The tests were carried out according to the method described by C. J. E. Niemergeers et al., Arch. Int. Pharmacodyn., 234,164,-1978. Sprague Dawley Nos male rats (Nossan, Correzzana, Milano) weighing 140-150 g, divided into groups of 10 animals each, on an empty stomach for 24 hrs and with water ad libitum, were kept in cages with a grid floor, then treated intravenously with 2 mg/kg of compound 48/80 (1 ml/rat). The compound (I) or the carrier were dissolved in water (5 ml/kg) and intraperitoneally administered to the animals 30 minutes before the treatment with the compound 48/80. The mortality occurred in the group of treated animals during the first 4 hours following the treatment was noted down. The results were expressed as the number of animals dead with respect to the number of treated animals.
The experimental data were submitted to the variance analysis and to the subsequent multiple comparisons according to Dunnett (D. J. Finney, "Statistical Method in Biological Assay", Ed. L. Griffin and Co., Ltd., pg. 152-157, Edition Ames, Iowa, 1971).

[4] = tested on: mortality induced by histamine; assay: Effect on the mortality induced by histamine; assay type: in vivo, male albino guinea pigs (Dunkin-Hartley); conditions: Cavia porcellus, ip, 30 minutes before 1.25 mg/kg i.v. histamine dihydrochloride; guinea pigs; read-out: Histamine mortality ID50
Experimental: The method described by Romer D. et al., (Med. Welt 17, 791, 1966) was followed and the tests were carried out on male albino guinea pigs (Dunkin-Hartley), weighing 350-450 g, which were kept in cages with a grid floor, on an empty stomach for 24 hrs and with water ad libitum.
The compounds (I) were dissolved in saline solution and intraperitoneally administered to the animals: 30 minutes later the same animals were intravenously treated with 1.25 mg/kg of histamine dihydrochloride in saline solution.
It was evaluated ID50 which corresponds to the amount of the compound able to inhibit 50% of the mortality induced by histamine: the estimation of ID50 was carried out by applying the `probit` method (Finney D. J. "Statistical Method in Biological Assay" p. 512, 1957).

[5] = Effect on the sleeping time; assay type: in vivo; conditions: 25 mg/kg i.p.

T1 sequence (P31390 whole entry): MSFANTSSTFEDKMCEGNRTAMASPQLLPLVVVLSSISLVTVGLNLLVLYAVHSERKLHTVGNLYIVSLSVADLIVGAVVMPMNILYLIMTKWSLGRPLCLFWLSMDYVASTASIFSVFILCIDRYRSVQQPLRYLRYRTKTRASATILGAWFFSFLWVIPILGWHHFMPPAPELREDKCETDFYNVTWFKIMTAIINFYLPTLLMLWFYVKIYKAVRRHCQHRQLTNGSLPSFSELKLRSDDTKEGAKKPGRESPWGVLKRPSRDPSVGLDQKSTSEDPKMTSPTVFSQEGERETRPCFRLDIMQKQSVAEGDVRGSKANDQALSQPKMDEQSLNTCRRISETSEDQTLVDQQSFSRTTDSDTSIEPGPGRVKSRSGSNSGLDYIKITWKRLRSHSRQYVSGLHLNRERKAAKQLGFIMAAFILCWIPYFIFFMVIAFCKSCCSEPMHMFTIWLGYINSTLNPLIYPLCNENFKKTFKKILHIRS

Compound | IC50 [1] [nM] | LD50 at 336 h [2] [mg/kg] | ED50 [3] [mg/kg] | ED50 [4] [mg/kg] | Sleeping time % increase [5] [%]
CCOCCn1c(SCCN(C)C)nc2ccccc21 [Example 3, 1-(2-Ethoxyethyl)-2-(2-dimethylaminoethylthio)benzimidazole. 2 HCl] | 2.4 | > 100 | 0.008 | 0.0109 | 5
CC(C)(C)c1ccc(C(O)CCCN2CCC(C(O)(c3ccccc3)c3ccccc3)CC2)cc1 (centres unmarked) [Terfenadine, reference compound] | – | > 100 | 1.99 | 0.735 | 8
CCOCCn1c(SCC(C)N(C)C)nc2ccccc21 (centres unmarked) [Example 5, 1-(2-Ethoxyethyl)-2-(2-dimethylaminoisopropylthio)benzimidazole] | 6.1 | ~100 | 0.009 | 0.05 | 10
